Experimental data published in PMC9098890 (European Journal of Medicinal Chemistry, 2022).

Experiments:
SARS-CoV-2 (WIV04) = test: Anti-viral activity assay; type: cell-based
SARS-CoV-2 3CL^Pro = SARS-CoV-2 3CL^Pro (Severe acute respiratory syndrome coronavirus 2, UniProt P0DTD1); test: Enzymatic inhibitory activity assay; type: biochemical; details: IC50 compared with positive control 1

SMILES | reduction of SARS-CoV-2 viral RNA (SARS-CoV-2 (WIV04)) | also measured
CC(C)C[C@H](NC(=O)/C=C/c1ccccc1)C(=O)N[C@H](C=O)C[C@@H]1CCNC1=O [Compound 10b, (S)-2-cinnamamido-4-methyl-N-((S)-1-oxo-3-((S)-2-oxopyrrolidin-3-yl)propan-2-yl)pentanamide] | more than 2 logs | –
CCCC[C@H](NC(=O)/C=C/c1ccccc1)C(=O)N[C@H](C=O)C[C@@H]1CCNC1=O [Compound 10c, (S)-2-cinnamamido-N-((S)-1-oxo-3-((S)-2-oxopyrrolidin-3-yl)propan-2-yl)hexanamide] | more than 2 logs | –
CC(C)C[C@H](NC(=O)/C=C/c1ccccc1)C(=O)N[C@H](C=O)C[C@@H]1CCCNC1=O [Compound 10g, (S)-2-cinnamamido-4-methyl-N-((S)-1-oxo-3-((S)-2-oxopiperidin-3-yl)propan-2-yl)pentanamide] | more than 2 logs | –
CC(C)(C)[C@H](NC(=O)/C=C/c1ccccc1)C(=O)N[C@H](C=O)C[C@@H]1CCCNC1=O [Compound 10h, (S)-2-cinnamamido-3,3-dimethyl-N-((S)-1-oxo-3-((S)-2-oxopiperidin-3-yl)propan-2-yl)butanamide] | more than 2 logs | –
CC(C)C[C@H](NC(=O)[C@@H](NC(=O)/C=C/c1ccccc1)C(C)C)C(=O)N[C@H](C=O)C[C@@H]1CCCNC1=O [Compound 14c, (S)-2-((S)-2-cinnamamido-3-methylbutanamido)-4-methyl-N-((S)-1-oxo-3-((S)-2-oxopiperidin-3-yl)propan-2-yl)pentanamide] | – | antiviral activity against SARS-CoV-2 (in words) (SARS-CoV-2 (WIV04)): no antiviral activity
CC(C)C[C@H](NC(=O)[C@H](CC1CCCCC1)NC(=O)/C=C/c1ccccc1)C(=O)N[C@H](C=O)C[C@@H]1CCCNC1=O [Compound 14d, (S)-2-((S)-2-cinnamamido-3-cyclohexylpropanamido)-4-methyl-N-((S)-1-oxo-3-((S)-2-oxopiperidin-3-yl)propan-2-yl)pentanamide] | more than 2 logs | –
CC(C)C[C@H](NC(=O)[C@@H](NC(=O)c1ccc2ccccc2c1)C(C)C)C(=O)N[C@H](C=O)C[C@@H]1CCCNC1=O [Compound 17i, N-((S)-3-methyl-1-(((S)-4-methyl-1-oxo-1-(((S)-1-oxo-3-((S)-2-oxopiperidin-3-yl)propan-2-yl)amino)pentan-2-yl)amino)-1-oxobutan-2-yl)-2-naphthamide] | more than 2 logs | –
CC(C)C[C@H](NC(=O)[C@@H](NC(=O)c1ccc(Cl)cc1)C(C)C)C(=O)N[C@H](C=O)C[C@@H]1CCCNC1=O [Compound 17w, 4-chloro-N-((S)-3-methyl-1-(((S)-4-methyl-1-oxo-1-(((S)-1-oxo-3-((S)-2-oxopiperidin-3-yl)propan-2-yl)amino)pentan-2-yl)amino)-1-oxobutan-2-yl)benzamide] | – | increased inhibitory potency versus positive control 1 (SARS-CoV-2 3CL^Pro): 4 fold
